Source: patent publication US9695155B2, “Herbicidal substituted pyrimidinyloxy benzene compounds” (E. I. DU PONT DE NEMOURS AND COMPANY, priority 2013, dated 2017)

Key:
field poppy = experiment: Test D preemergence; type: in vivo, Papaver rhoeas; conditions: Papaver rhoeas, pre-emergence, scale 0-100, read-out: Plant response rating, Field Poppy
Text: (§1) Seeds of plant species selected from bluegrass (annual bluegrass, Poa annua), blackgrass (Alopecurus myosuroides), canarygrass (littleseed canarygrass, Phalaris minor), chickweed (common chickweed, Stellaria media), galium (catchweed bedstraw, Galium aparine), bromegrass, downy (downy bromegrass, Bromus tectorum), field poppy (Papaver rhoeas), field violet (Viola arvensis), green foxtail (Setaria viridis), deadnettle (henbit deadnettle, Lamium amplexicaule), Italian ryegrass (Lolium multiflorum), kochia (Kochia scoparia), lambsquarters (Chenopodium album), oilseed rape (Brassica napus), pigweed (Amaranthus retroflexus), chamomile (scentless chamomile, Matricaria inodora), Russian thistle (Salsola kali), speedwell (bird's-eye speedwell, Veronica persica), spring barley (Hordeum vulgare), spring wheat (Triticum aestivum), wild buckwheat (Polygonum convolvulus), wild mustard (Sinapis arvensis), wild oat (Avena fatua), wild radish (Raphanus raphanistrum), windgrass (Apera spica-venti), winter barley (Hordeum vulgare), and winter wheat (Triticum aestivum) were planted into a silt loam soil and treated preemergence with test chemicals formulated in a non-phytotoxic solvent mixture which included a surfactant.
(§2) At the same time, these species were planted in pots containing Redi-Earth® planting medium (Scotts Company, 14111 Scottslawn Road, Marysville, Ohio 43041) comprising spaghnum peat moss, vermiculite, wetting agent and starter nutrients and treated with postemergence applications of the test chemicals formulated in the same manner. Plants ranged in height from 2 to 18 cm (1- to 4-leaf stage). Treated plants and controls were maintained in a controlled growth environment for 7 to 21 days after which time all species were compared to controls and visually evaluated. Plant response ratings, summarized in Table D, are based on a scale of 0 to 100 where 0 is no effect and 100 is complete control. A dash (-) response means no test result.

pigweed [1] = experiment: Test D preemergence; type: in vivo, Amaranthus retroflexus; conditions: Amaranthus retroflexus, pre-emergence
Text: as §1, §2

speedwell = experiment: Test D preemergence; type: in vivo, Veronica persica; conditions: Veronica persica, pre-emergence
Text: as §1, §2

wild oat = experiment: Test D preemergence; type: in vivo, Avena fatua; conditions: Avena fatua, pre-emergence, scale 0-100, read-out: Plant response rating, Oat, Wild
Text: as §1, §2

chickweed = experiment: Test D postemergence; type: in vivo, Stellaria media; conditions: Stellaria media, post-emergence, scale 0 to 100 (0 no effect, 100 complete control), read-out: Plant response rating, Chickweed
Text: as §1, §2

Italian ryegrass = experiment: Test D postemergence; type: in vivo, Lolium multiflorum; conditions: Lolium multiflorum, post-emergence, scale 0 to 100 (0 no effect, 100 complete control), read-out: Plant response rating, Ryegrass, Italian
Text: as §1, §2

lambsquarters = experiment: Test D postemergence; type: in vivo, Chenopodium album; conditions: Chenopodium album, post-emergence, scale 0 to 100 (0 no effect, 100 complete control), read-out: Plant response rating, Lambsquarters
Text: as §1, §2

pigweed [2] = experiment: Test D postemergence; type: in vivo, Amaranthus retroflexus; conditions: Amaranthus retroflexus, post-emergence, scale 0 to 100 (0 no effect, 100 complete control), read-out: Plant response rating, Pigweed
Text: as §1, §2

spring barley = experiment: Test D postemergence; type: in vivo, Hordeum vulgare; conditions: Hordeum vulgare, post-emergence, Postemergence, scale 0 to 100 (0 no effect, 100 complete control), read-out: Plant response rating, Barley, Spring
Text: as §1, §2

winter barley = experiment: Test D postemergence; type: in vivo, Hordeum vulgare; conditions: Hordeum vulgare, post-emergence, Postemergence, scale 0 to 100 (0 no effect, 100 complete control), read-out: Plant response rating, Barley, Winter
Text: as §1, §2

wild buckwheat = experiment: Test D postemergence; type: in vivo, Polygonum convolvulus; conditions: Fallopia convolvulus, post-emergence, Postemergence, scale 0 to 100 (0 no effect, 100 complete control), read-out: Plant response rating, Buckwheat, Wild
Text: as §1, §2

SMILES: N#Cc1cccc(Oc2ncc(Cl)cn2)c1-n1cc(Br)cn1 [Compound 52, 2-(4-bromo-1H-pyrazol-1-yl)-3-[(5-chloro-2-pyrimidinyl)oxy]benzonitrile]
- pest or weed control at 31 g/ha (field poppy; 31 g ai/ha): 95%
- pest or weed control at 62 g/ha (field poppy; 62 g ai/ha): 80%
- pest or weed control at 125 g/ha (field poppy; 125 g ai/ha): 90%
- pest or weed control at 250 g/ha (field poppy; 250 g ai/ha): 100%
- pest or weed control at 31 g/ha (pigweed [1]; 31 g ai/ha, scale 0 (no effect) to 100 (complete control), read-out: Plant response rating, Pigweed): 100%
- pest or weed control at 62 g/ha (pigweed [1]; 62 g ai/ha, scale 0-100, read-out: Plant response rating, Pigweed): 100%
- pest or weed control at 125 g/ha (pigweed [1]; 125 g ai/ha, scale 0-100, read-out: Plant response rating, Pigweed): 100%
- pest or weed control at 250 g/ha (pigweed [1]; 250 g ai/ha, scale 0-100, read-out: Plant response rating, Pigweed): 100%
- pest or weed control at 31 g/ha (speedwell; 31 g ai/ha, scale 0 (no effect) to 100 (complete control), read-out: Plant response rating, Speedwell): 100%
- pest or weed control at 62 g/ha (speedwell; 62 g ai/ha, scale 0-100, read-out: Plant response rating, Speedwell): 100%
- pest or weed control at 125 g/ha (speedwell; 125 g ai/ha, scale 0-100, read-out: Plant response rating, Speedwell): 100%
- pest or weed control at 250 g/ha (speedwell; 250 g ai/ha, scale 0-100, read-out: Plant response rating, Speedwell): 100%
- pest or weed control at 31 g/ha (wild oat; 31 g ai/ha): 0%
- pest or weed control at 62 g/ha (wild oat; 62 g ai/ha): 0%
- pest or weed control at 125 g/ha (wild oat; 125 g ai/ha): 0%
- pest or weed control at 250 g/ha (wild oat; 250 g ai/ha): 20%
- pest or weed control at 31 g/ha (chickweed; 31 g ai/ha): 60%
- pest or weed control at 62 g/ha (chickweed; 62 g ai/ha): 70%
- pest or weed control at 125 g/ha (chickweed; 125 g ai/ha): 85%
- pest or weed control at 250 g/ha (chickweed; 250 g ai/ha): 90%
- pest or weed control at 31 g/ha (Italian ryegrass; 31 g ai/ha): 5%
- pest or weed control at 62 g/ha (Italian ryegrass; 62 g ai/ha): 5%
- pest or weed control at 125 g/ha (Italian ryegrass; 125 g ai/ha): 20%
- pest or weed control at 250 g/ha (Italian ryegrass; 250 g ai/ha): 35%
- pest or weed control at 31 g/ha (lambsquarters; 31 g ai/ha): 80%
- pest or weed control at 62 g/ha (lambsquarters; 62 g ai/ha): 75%
- pest or weed control at 125 g/ha (lambsquarters; 125 g ai/ha): 75%
- pest or weed control at 250 g/ha (lambsquarters; 250 g ai/ha): 95%
- pest or weed control at 31 g/ha (pigweed [2]; 31 g ai/ha): 80%
- pest or weed control at 62 g/ha (pigweed [2]; 62 g ai/ha): 85%
- pest or weed control at 125 g/ha (pigweed [2]; 125 g ai/ha): 85%
- pest or weed control at 250 g/ha (pigweed [2]; 250 g ai/ha): 95%
- plant injury at 31 g/ha (spring barley; 31 g ai/ha): 10%
- plant injury at 62 g/ha (spring barley; 62 g ai/ha): 15%
- plant injury at 125 g/ha (spring barley; 125 g ai/ha): 15%
- plant injury at 250 g/ha (spring barley; 250 g ai/ha): 20%
- plant injury at 31 g/ha (winter barley; 31 g ai/ha): 10%
- plant injury at 62 g/ha (winter barley; 62 g ai/ha): 10%
- plant injury at 125 g/ha (winter barley; 125 g ai/ha): 15%
- plant injury at 250 g/ha (winter barley; 250 g ai/ha): 20%
- pest or weed control at 31 g/ha (wild buckwheat; 31 g ai/ha): 80%
- pest or weed control at 62 g/ha (wild buckwheat; 62 g ai/ha): 95%
- pest or weed control at 125 g/ha (wild buckwheat; 125 g ai/ha): 100%
- pest or weed control at 250 g/ha (wild buckwheat; 250 g ai/ha): 100%
